“Also recorded” adds a separate entry of the source.

What all share (format): cell-based, human
Experiment [1] deals with Jurkat cells. Put plainly: Flow cytometry (PI, La, hTERT, TRF2 staining) of Jurkat cells after cytotoxic treatment. The settings on record: FIG. 4B; for hTERT staining of Jurkat cells: 48 h treatment, only in PI high cells. The procedure: (§1) FIG. 4 is a graphical representation of the cytotoxic treatment of malignant human cells results in increased expression of TRF2 and La in apoptotic cells 24 h after treatment and in increased expression of hTERT in apoptotic cells 48 h after treatment. A. Jurkat cells after 24 h treatment with cytotoxic agents. […] B. Jurkat cells after 48 h treatment with cytotoxic agents. […] C. Raji cells after 24 h treatment with cytotoxic agents. […] D. Jurkat cells after 24 h treatment with cytotoxic agents. […] E. Jurkat cells after 48 h treatment with cytotoxic agents. Staining for La (3B9-F1TC) and TRF2 in apoptotic cells was more evident 48 h after treatment with all cytotoxic agents. F. Raji cells after 48 h treatment with cytotoxic agents. […] G. HeLa cells after 48 h treatment with cytotoxic agents. […] In each case, the staining is indicated above each column of panels and the cytotoxic employed is indicated to the left of each row of panels. Also indicated is a PI only control and negative controls for hTERT staining (purified rat IgG or anti-rat secondary antibody alone) and for TRF2 staining (purified mouse IgG or anti-mouse secondary antibody alone).
(§2) The Jurkat and Raji cell lines were cultured in RPMI supplemented with 10% FCS, 50 U/mL penicillin and 50 μg/mL streptomycin sulphate and the U2OS and HeLa cell lines were cultured in DMEM supplemented with 10% FCS, 50 U/mL penicillin and 50 μg/mL streptomycin sulphate (JRH Laboratories). The cell lines were treated for 24 or 48-hour periods with various cytotoxic agents as follows: Jurkat and Raji cells with etoposide, 20 μg/mL; HeLa and U2OS cells with cisplatin, 1 μg/mL, and vincristine, 0.1 μg/mL; Jurkat, HeLa and U2OS cells with 0.5 μM STS, and Raji cells with 2 μM STS. The treated cells were stained with propidium iodide (PI) (Sigma) 0.5 μg/mL and FITC-conjugated Sal5 or 3B9 mAb, or mouse anti-TRF2 mAb (clone 36, Becton-Dickinson) and then secondary antibody, anti mouse FITC (Chemicon, Temecula, Calif., USA), or rat anti-hTERT mAb (clone 36-10, Alexis Biochemicals) and then secondary antibody, anti rat FITC (Caltag, Burlingame, Calif., USA). Purified mouse IgG or rat IgG (Institute of Medical and Veterinary Science, Adelaide, Australia) were used as negative controls for TRF2 and hTERT staining, respectively. To further improve the method for detection of hTERT for later use in whole blood staining, which appeared to have been hindered by the presence of autofluorescence presumably emanating from red blood cells, anti-hTERT monoclonal antibody clone 36-10 was conjugated directly to AlexaFluor350 (Molecular Probes), which is excited at 355 nm and emits maximally between 420-460 nm. Anti-hTERT-Alexa350 was combined with the EpCAM monoclonal antibody (BD Biosciences), which is conjugated to PE that excites at 488 nm and emits 560-590 nm, and the nuclear impermeant DNA-binding dye TOPRO-3 (Molecular Probes), which excites at 560 nm and emits maximally in the far red region (>650 nm).
The human T cell leukemia cell line, Jurkat, and the human B lymphoma cell line, Raji, were treated for 24 or 48 hour periods with the following cytotoxic agents: staurosporine, which is a pan-kinase inhibitor, etoposide, which is a topoisomerase II inhibitor, vincristine, which is a microtubule depolymerising agent and cisplatin, which is a DNA cross linking agent. Cells were then stained with propidium iodide (PI) and the anti-La monoclonal antibody (mAb), 3B9, or its isotype control, Sal5, or with mAbs specific for hTERT or TRF2. As negative controls for staining with the hTERT- or TRF2-specific mAbs, rat IgG and anti-rat secondary antibody or mouse IgG and anti-mouse secondary antibody, respectively, were used.

For experiment [2], the system named is HeLa cells. Put plainly: Flow cytometry (PI, La, hTERT, TRF2 staining) of HeLa cells after cytotoxic treatment. The following applies: FIG. 4G; for apoptosis and La staining in HeLa cells: 48 h treatment. The method, then:
as §1, §2
Similarly, TRF2 staining of PI^+ dead Jurkat cells was evident as soon as 24 hours after cytotoxic treatment (FIG. 4D) and 48 hours afterwards (F1G. 4E). […] In contrast, it took 48 hours after treatment with cisplatin, etoposide and vincristine for hTERT staining of PI^+ dead Jurkat cells to be evident (arrows, FIG. 4B). hTERT staining of PI^+ dead Raji cells was evident 48 hours after treatment with vincristine (arrow, FIG. 4C). As additional controls, the telomerase-expressing human cervical carcinoma cell line, HeLa, and the telomerase-negative human osteosarcoma cell line, U2OS (M Frolkis et al. Cancer Gene Therapy 10, 239-249, 2003), were also treated with staurosporine, vincristine and etoposide and analysed by flow cytometry 48 hours after treatment.
(In general: In flow cytometry, cells or beads pass a laser one at a time.)

In experiment [3] the test system is U2OS cells. Put plainly: Flow cytometry (PI, La, hTERT, TRF2 staining) of U2OS cells after cytotoxic treatment. The following applies: FIG. 4H. The procedure:
as §1, §2
Similarly, TRF2 staining of PI^+ dead Jurkat cells was evident as soon as 24 hours after cytotoxic treatment (FIG. 4D) and 48 hours afterwards (F1G. 4E). […] As additional controls, the telomerase-expressing human cervical carcinoma cell line, HeLa, and the telomerase-negative human osteosarcoma cell line, U2OS (M Frolkis et al. Cancer Gene Therapy 10, 239-249, 2003), were also treated with staurosporine, vincristine and etoposide and analysed by flow cytometry 48 hours after treatment.

Experiment [4] deals with H69 cells. Put plainly: BerEP4-FITC / PI staining of etoposide-treated H69 cells. The following applies: 48 hours. The method, then: FIG. 8 is a graphical representation of the staining of H69 cells using the anti-epithelial marker monoclonal antibody BerEP4-FITC. H69 cells (1×10^6 cells/mL) were cultured in RPMI-1640 containing 5% FCS in the absence or presence of the specified concentrations of etoposide (0-400 μg/mL). After 48 hours of incubation, cells were collected and incubated at room temperature for 15 minutes with (A) 5 μg/mL BerEP4-FITC or (B) 5 μg/mL mouse IgG2aκ-FITC isotype. Cells were washed and pellets were resuspended in 0.5 μg/mL solution of PI in PBS then analysed by flow cytometry.

Experiment [5] relates to Raji cells. Put plainly: Flow cytometry (PI, La, hTERT, TRF2 staining) of Raji cells after cytotoxic treatment. The settings on record: for TRF2 staining of Raji cells: 48 hours, FIG. 4F. The method, then:
as §1
as §2, with “Anti-hTERT-Alexa350 was combined with the EpCAM monoclonal antibody (BD Biosciences), which is conjugated to PE that excites at 488 nm and emits 560-590 nm, and the nuclear impermeant DNA-binding dye TOPRO-3 (Molecular Probes), which excites at 560 nm and emits maximally in the far red region (>650 nm).” left out

The subject of experiment [6] is U2OS cells. Put plainly: Viability analysis using trypan blue staining after induction of apoptosis, U2OS cells. The settings on record: 0.5 μM staurosporine. The method, then:
(§3) Jurkat cells (ATCC #TIB-152) were maintained in RPMI 1640 supplemented with 5% fetal calf serum (FCS). U2OS cells (ATCC #HTB-96) were maintained in DMEM supplemented with 5% FCS and passaged every 48-72 hours after detachment with Trypsin EDTA. Jurkat cells express telomerase and thus have the integral RNA component, hTR, whereas U2OS cells lack telomerase and hTR. Apoptosis was induced by the addition of 0.5 μM staurosporine to the culture media for 24, 48 or 72 hours.
(§4) The RNA for hTR was not detected in the hTR-negative U2OS cells but was detected in the hTR-positive Jurkat cells 24, 48 and 72 hours after the induction of apoptosis.

In experiment [7] the test system is Jurkat cells. Put plainly: Viability analysis using trypan blue staining after induction of apoptosis, Jurkat cells. The following applies: 0.5 μM staurosporine. The procedure: as §3, §4
Experiment [8] has as its system PBMC. Put plainly: hTERT / 7-AAD staining of PBMC after staurosporine-induced apoptosis. The settings on record: 24 hours after induction of apoptosis, 1 μM staurosporine, FIG. 5. The procedure:
(§5) FIG. 5 is a graphical representation of the culturing of PMBC with conconavalin A (conA) 10 μg/mL for 72 h. Viable cells were obtained by density gradient centrifugation and then apoptosis was induced using 1 μM staurosporine for 24 h. Jurkat cells were also treated with 1 μM staurosporine for 24 h. Dot plots depict staining for 7-AAD and hTERT. The negative control is staining with the secondary antibody alone.
(§6) Peripheral blood mononuclear cells (PBMC) were prepared from a buffy coat of a discarded unit of whole blood that had been obtained from the South Australian Red Cross Blood Bank. Initially, PBMC had been separated by density gradient centrifugation over Lymphoprep (Axis-Shield, Dundee, UK) and frozen in aliquots using a controlled rate freezer. […]
(§7) After treatment, all cells were harvested, washed in PBS and stained with 7-amino actinomycin D (7-AAD) (2 μg/mL) and anti-La 3B9 mAb or its isotype control mAb, Sal5, and then with the secondary anti-mouse antibody conjugated to R-phycoerythrin (Zymed, San Francisco, Calif., USA), or with rat anti-hTERT mAb (Alexis Biochemicals, San Diego, Calif., USA) and then with the secondary anti-rat antibody conjugated to FITC (Chemicon). Cells were analysed using a FACScan (Becton Dickinson, Franklin Lakes, N.J., USA) and the results analysed with WinMDI v2.8 software.

For experiment [9], the system named is Jurkat cells. Put plainly: hTERT / 7-AAD staining of Jurkat cells after staurosporine-induced apoptosis. The settings on record: 24 hours after induction of apoptosis, 1 μM staurosporine, FIG. 5. The procedure:
as §5, §6, §7

In the case of `COc1cc([C@@H]2c3cc4c(cc3[C@@H](O[C@@H]3O[C@@H]5CO[C@@H](C)O[C@H]5[C@H](O)[C@H]3O)[C@H]3COC(=O)[C@H]23)OCO4)cc(OC)c1O` [etoposide], in experiment [1], the “hTERT staining of Jurkat cells” value is “increased staining for hTERT” and the “time after treatment for hTERT staining of PI+ dead Jurkat cells to be evident” value (“time after treatment for hTERT staining” for short) is 48 h. Also, in [2] (48 hours after treatment), the “TRF2 staining of PI+ dead HeLa cells” value is listed as “Evident staining; also recorded: little staining for TRF2” and the “hTERT staining of PI+ dead HeLa cells” value is listed as “Evident staining; also recorded: staining for hTERT”. Moreover, the “apoptosis and La staining in HeLa cells” value in experiment [2] is “induced apoptosis”. Also, in experiment [3] (48 hours after treatment), the “hTERT staining of PI+ dead U2OS cells” value is reported as “not”. Further, the “etoposide concentration giving maximal proportion of dead (BerEP4+ PI+) H69 carcinoma cells” value in experiment [4] (FIG. 8A) fell in the range of 200 to 400 µg/mL. Further, the “extent of cell death of H69 cells” value in experiment [4] (etoposide 0-400 μg/mL, FIG. 8) is recorded as “dose-dependent”.

Turning to `CC[C@]1(O)C[C@H]2CN(CCc3c([nH]c4ccccc34)[C@@](C(=O)OC)(c3cc4c(cc3OC)N(C=O)[C@H]3[C@@](O)(C(=O)OC)[C@H](OC(C)=O)[C@]5(CC)C=CCN6CC[C@]43[C@@H]65)C2)C1` [vincristine], in experiment [1], the “hTERT staining of Jurkat cells” value is “increased staining for hTERT” and the “time after treatment for hTERT staining” value was determined as 48 h. The “hTERT staining of Raji cells” value in experiment [5] (24 h treatment (legend FIG. 4C)) is listed as “marginally increased staining”. Also, the “hTERT staining of PI+ dead Raji cells” value in experiment [5] (48 hours after treatment (text, FIG. 4C)) is “evident”. Also, the “TRF2 staining of Raji cells” value in [5] is “slightly increased staining; also recorded: increased TRF2 staining”. Moreover, in experiment [2] (48 hours after treatment), the “hTERT staining of PI+ dead HeLa cells” value is “Evident staining; also recorded: staining for hTERT”. In [2], the “apoptosis and La staining in HeLa cells” value is “induced apoptosis”. The “hTERT staining of PI+ dead U2OS cells” value in experiment [3] (48 hours after treatment) is “not”.

Take `N.N.[Cl][Pt][Cl]` [cisplatin]: in experiment [1], the “hTERT staining of Jurkat cells” value was “increased staining for hTERT” and the “time after treatment for hTERT staining” value was 48 h. In addition, the “TRF2 staining of Raji cells” value in experiment [5] is “slightly increased staining; also recorded: increased TRF2 staining”.

Regarding `CN[C@@H]1C[C@H]2O[C@@](C)([C@@H]1OC)n1c3ccccc3c3c4c(c5c6ccccc6n2c5c31)C(=O)NC4` [staurosporine], the figures for the “U2OS cells dead (trypan blue)” value in experiment [6] (24 hours), in experiment [6] (48 hours) and in experiment [6] (72 hours) were 36%, 95% and 100%, respectively. Besides, the “Jurkat cells dead (trypan blue)” value in experiment [7] (24 hours) is 40%; in [7] (48 hours) it was 85%; in experiment [7] (72 hours) it was 100%. For the same compound, the “hTERT staining of PI+ dead HeLa cells” value in experiment [2] (48 hours after treatment) is listed as “Evident staining; also recorded: staining for hTERT”. For the same compound, the “apoptosis and La staining in HeLa cells” value in experiment [2] is given as “induced apoptosis”. In addition, in [3] (48 hours after treatment), the “TRF2 staining of PI+ dead U2OS cells” value is “no corresponding staining”. Moreover, the “hTERT staining of PI+ dead U2OS cells” value in experiment [3] (48 hours after treatment) is “not and no corresponding staining”. For the same compound, the “apoptosis and La staining in U2OS cells” value in experiment [3] (48 h treatment) is on record as “induced apoptosis”. Moreover, the “telomerase expression in dead PBMC” value in [8] was “little if any”. Besides, the “telomerase expression in Jurkat cells” value in experiment [9] is on record as “little if any”.

Source of the values: patent US20090214420A1, “Method of Diagnosis and Treatment and Agents Useful for Same” (MEDVET SCIENCE PTY. LTD., priority 2005, published 2009).
